Measurements from PMC11897524 (Frontiers in Pharmacology, 2025).

What was measured:
BRD4 [1] = biological target: T1, BRD4 (Homo sapiens, UniProt O60885); experiment: AlphaScreen BRD4 binding inhibition assay; parameters: purchased Abcam
Procedure: The inhibitory effect was measured through the previously described the amplified luminescent proximity homogeneous assay (AlphaScreen) ([Feng et al., 2018]). First, the compounds were diluted twofold to different concentrations (64, 32, 16, 8, 4, 2, 1, 0.5, 0.25, 0.125, 0.0625 nM) and each was incubated with BRD4 protein at a concentration of 12.5 nM for 15 min at room temperature. Biotin-labeled peptide (SGRG-K(Ac)-GG-K(Ac)-GLG-K(Ac)-GGA-K (Ac)-RHRKVGG-K-biotin) was added for 10 min, followed by streptavidin donor beads and AlphaScreen nickel chelate acceptor and incubation for 1h. All components were incubated in a total volume of 20 μL assay buffer containing 20 mM HEPES, pH 7.4, 0.1% bovine serum albumin (BSA, w/v), 0.01% Triton X-100, and 1 mM DTT. Finally, counts were measured by EnVision (Perkin Elmer, Hopkinton, MA) and analyzed by Graphpad Prism 7.0 software.

STAT3 [2] = biological target: T2, STAT3 (Homo sapiens, UniProt P40763); experiment: STAT3 binding inhibition assay; parameters: purchased Abcam
BRD4 [3] = biological target: T1, BRD4; experiment: Microscale thermophoresis (MST) assay; format: binding; parameters: purchased Abcam; conditions: MST
STAT3 [4] = biological target: T2, STAT3; experiment: Microscale thermophoresis (MST) assay; format: binding; parameters: purchased Abcam; conditions: MST
Procedure: The MST experiments were performed using the Monolith NT.115 instrument. BRD4 and STAT3 proteins were labeled with the Lys labeling kit at the final concentration of 100 nM. The compounds, previously suspended in 100% DMSO, were diluted in a buffer containing 20 mM Tris·HCl (pH 7.5), 100 mM NaCl, and 3 mM DTT, achieving a final DMSO concentration of 5%. The compounds were gradient-diluted in 1:1 dilution and starting from 100 μM. The samples were loaded into MST-standard glass capillaries. All the measurements were performed in triplicate using automatically assigned 50% MST power and 20% LED power. Data analysis was performed using GraphPad Prism 7.0 software.

BRD4 [5] = system: BRD4; parameters: method as in Boi et al., 2015; conditions: BRD4 inhibitor; ref Boi et al., 2015; read-out: IC50 value as reported; cited from earlier work
CAKI-2 cells = experiment: MTT cytotoxicity assay; format: cell-based, human; conditions: Homo sapiens, CAKI-2, cell growth, 48 h treatment, read-out: IC50 (μM) ± SD CAKI-2
Procedure: Human normal renal cortical proximal tubular epithelial cell line HK-2 and human renal carcinoma cell lines CAKI-2, SLR-23, 769-P, A704 and RCC4 were previously purchased from the American Type Culture Collection (ATCC, Manassas, VA, USA) or the European Collection of Cell Cultures (ECACC, Salisbury, United Kingdom). HK2, A704, and RCC4 cells were maintained in high glucose DMEM supplemented with 10% FBS and 1% penicillin/streptomycin. SLR-23 and […] cells were cultured in RPMI-1640 medium with 10% FBS and 1% penicillin/streptomycin. CAKI-2 cells were maintained in McCoy’s 5A medium supplemented with 10% FBS and 1% penicillin/streptomycin. All the cell lines were cultured at 37°C in a humidified atmosphere of 5% CO2 and 95% air.
The effect of hit compounds on cytotoxicity was determined as previously reported ([Ding et al., 2020]). In brief, cells treated with the tested compounds were added with MTT reagent to form formazan crystals, and then the optical density (OD) values at 570 nm were determined after the crystals were dissolved in DMSO. […] Next, the values of IC50 of the selected compounds against more RCC cell lines were determined. The 5 × 10^3 cells in 100 μL culture medium were injected into each well of a 96-well plate and cultured overnight. Add different concentrations of compounds and incubate for 48 h. Then 100 μL of MTT (0.5 mg/mL) solution was added to the 96-well plate and maintained at 37°C for 4 h. Finally, 200 μL of DMSO was added and shaken for 10 min. The OD values at 570 nm were determined by a Synergy 4 microplate reader.

T2 sequence (P40763 whole entry): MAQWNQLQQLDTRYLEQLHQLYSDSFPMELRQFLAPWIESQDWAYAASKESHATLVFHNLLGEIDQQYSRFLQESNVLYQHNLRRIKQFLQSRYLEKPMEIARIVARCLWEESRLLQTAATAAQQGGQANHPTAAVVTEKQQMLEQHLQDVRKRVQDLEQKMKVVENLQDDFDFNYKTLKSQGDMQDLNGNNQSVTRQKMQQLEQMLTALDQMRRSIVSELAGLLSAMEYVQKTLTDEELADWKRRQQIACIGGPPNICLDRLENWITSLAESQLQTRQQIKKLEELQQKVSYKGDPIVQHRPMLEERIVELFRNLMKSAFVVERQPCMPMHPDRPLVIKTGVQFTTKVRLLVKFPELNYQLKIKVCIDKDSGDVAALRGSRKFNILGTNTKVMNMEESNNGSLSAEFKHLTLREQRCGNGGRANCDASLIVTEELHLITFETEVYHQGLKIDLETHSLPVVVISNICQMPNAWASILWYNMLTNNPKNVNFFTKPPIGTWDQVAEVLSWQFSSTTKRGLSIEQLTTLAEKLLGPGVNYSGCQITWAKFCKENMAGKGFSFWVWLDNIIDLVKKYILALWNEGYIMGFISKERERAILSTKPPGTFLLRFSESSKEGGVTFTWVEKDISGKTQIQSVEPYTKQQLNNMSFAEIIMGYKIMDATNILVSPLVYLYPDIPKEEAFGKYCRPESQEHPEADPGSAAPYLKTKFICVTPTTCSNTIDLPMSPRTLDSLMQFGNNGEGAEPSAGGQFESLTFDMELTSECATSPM

Row | Structure (SMILES) | IC50 (BRD4 [1]) [nM] | IC50 (STAT3 [2]) [nM] | Kd (BRD4 [3]) [nM] | Kd (STAT3 [4]) [nM] | IC50 (BRD4 [5]) [nM] | IC50 (CAKI-2 cells) [µM] | STAT3 (IC50, nM) (STAT3 [2])
1 | CCS(=O)(=O)Cc1cnc(Oc2c(F)cc(F)cc2OCc2nc(COc3ccc(/C=C/c4cc(OC)cc(OC)c4)cc3)c[nH]2)c(-c2cc(C)c3c(=O)[nH]ccn23)c1 [BST-1] | 15.7 ± 1.31 | 20.8 ± 1.94 | 12.3 ± 1.16 | 16.4 ± 0.95 |  |  | 
2 | CCS(=O)(=O)Cc1cnc(Oc2c(F)cc(F)cc2O/C=C\CC(=O)COc2ccc(/C=C/c3cc(OC)cc(OC)c3)cc2)c(-c2cc(C)c3c(=O)[nH]ccn23)c1 [BST-2] | 4.64 ± 0.17 | 27.2 ± 2.82 | 3.62 ± 0.25 | 28.7 ± 3.71 |  |  | 
3 | CCS(=O)(=O)Cc1cnc(Oc2c(F)cc(F)cc2OC[C@@H]2CCC[C@H](COc3ccc(/C=C/c4cc(OC)cc(OC)c4)cc3)N2)c(-c2cc(C)c3c(=O)[nH]ccn23)c1 [BST-3] | 7.09 ± 0.53 | 11.3 ± 0.95 | 5.37 ± 0.49 | 8.42 ± 0.38 |  |  | 
4 | CCS(=O)(=O)Cc1cnc(Oc2c(F)cc(F)cc2OCC2CCC(COc3ccc(C=Cc4cc(OC)cc(OC)c4)cc3)N2)c(-c2cc(C)c3c(=O)[nH]ccn23)c1 (stereo not shown) [BST-5] | 10.1 ± 1.15 | 17.8 ± 1.24 | 9.72 ± 0.84 | 13.7 ± 0.98 |  |  | 
5 | Cc1sc2c(c1C)C(c1ccc(Cl)cc1)=N[C@@H](CC(=O)Nc1ccc(O)cc1)c1nnc(C)n1-2 [OTX-015] |  |  |  |  | ~92 |  | 
6 | COc1cc(OC)c2c(=O)[nH]c(-c3cc(C)c(OCCO)c(C)c3)nc2c1 [RVX-208, reference compound] |  |  |  |  |  | 3.71 ± 0.42 | no inhibition
